Structures can show the parent of a compound that is named as a salt. Where two headings read alike, the source gives them in different places.
Assays:
[1] = target: N-terminal GST tagged recombinant human RET cytoplasmic domain (aa 658-end), wild type RET kinase (Homo sapiens (Human), UniProt P07949); experiment: RET Enzyme Assay (HTRF KinEASE-TK), wild type RET; format: biochemical; conditions: wild type RET, 1 mM ATP
[2] = target: Kif5b-RET fusion protein in HEK-293 cells (Homo sapiens, UniProt P07949); experiment: cell-based
Method: The cellular potency of a compound inhibiting RET kinase was determined in HEK-293 cells expressing a Kif5b-RET fusion protein. Briefly, HEK-293 cells expressing a Kif5b-RET fusion protein were plated at 50K cells/well in 96 well poly-D-Lysine coated plates the day prior to the assay. The cells were incubated for 1 hour with test compound in DMEM (Dulbecco's Modified Eagle Medium) at a final DMSO concentration of 0.5%. […] After 1 hour the media was removed, the cells were fixed with 3.8% formaldehyde for 20 min, washed with PBS, and permeabilized for 10 min with 100% methanol. […] All antibodies were diluted in LI-COR Block containing 0.05% Tween. The plates were washed with PBS-0.05% Tween20, 100 μL PBS was added to each well, and the plates were read on a LI-COR Aerius fluorescent plate reader. The phospho-RET signal was normalized to the GAPDH signal. […] The IC50 value is the point where the curve crosses 50 POC.

[3] = HEK-293 cells expressing Kif5b-RET, phospho-RET(Tyr1062), read-out: KIF5B-RET pTYR1062 Cell IC50
[4] = HEK-293 cells expressing Kif5b-RET, read-out: KIF5B-RET pTYR1062 Cell IC50

Chain of N-terminal GST tagged recombinant human RET cytoplasmic domain (aa 658-end), wild type RET kinase (P07949 658-1114): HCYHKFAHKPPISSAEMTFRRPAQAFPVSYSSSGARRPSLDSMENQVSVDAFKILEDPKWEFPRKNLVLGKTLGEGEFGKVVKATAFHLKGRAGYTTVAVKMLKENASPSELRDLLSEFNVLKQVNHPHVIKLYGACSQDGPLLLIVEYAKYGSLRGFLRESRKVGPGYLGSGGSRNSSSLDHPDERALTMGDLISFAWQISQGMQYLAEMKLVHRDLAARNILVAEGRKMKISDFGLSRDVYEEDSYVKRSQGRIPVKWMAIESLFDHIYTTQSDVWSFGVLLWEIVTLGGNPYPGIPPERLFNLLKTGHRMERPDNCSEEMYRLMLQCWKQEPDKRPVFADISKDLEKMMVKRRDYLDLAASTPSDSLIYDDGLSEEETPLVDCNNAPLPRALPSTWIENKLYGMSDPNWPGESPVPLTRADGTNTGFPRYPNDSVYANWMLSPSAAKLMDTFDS
Chain of Kif5b-RET fusion protein in HEK-293 cells (P07949 29-1114 limits assumed): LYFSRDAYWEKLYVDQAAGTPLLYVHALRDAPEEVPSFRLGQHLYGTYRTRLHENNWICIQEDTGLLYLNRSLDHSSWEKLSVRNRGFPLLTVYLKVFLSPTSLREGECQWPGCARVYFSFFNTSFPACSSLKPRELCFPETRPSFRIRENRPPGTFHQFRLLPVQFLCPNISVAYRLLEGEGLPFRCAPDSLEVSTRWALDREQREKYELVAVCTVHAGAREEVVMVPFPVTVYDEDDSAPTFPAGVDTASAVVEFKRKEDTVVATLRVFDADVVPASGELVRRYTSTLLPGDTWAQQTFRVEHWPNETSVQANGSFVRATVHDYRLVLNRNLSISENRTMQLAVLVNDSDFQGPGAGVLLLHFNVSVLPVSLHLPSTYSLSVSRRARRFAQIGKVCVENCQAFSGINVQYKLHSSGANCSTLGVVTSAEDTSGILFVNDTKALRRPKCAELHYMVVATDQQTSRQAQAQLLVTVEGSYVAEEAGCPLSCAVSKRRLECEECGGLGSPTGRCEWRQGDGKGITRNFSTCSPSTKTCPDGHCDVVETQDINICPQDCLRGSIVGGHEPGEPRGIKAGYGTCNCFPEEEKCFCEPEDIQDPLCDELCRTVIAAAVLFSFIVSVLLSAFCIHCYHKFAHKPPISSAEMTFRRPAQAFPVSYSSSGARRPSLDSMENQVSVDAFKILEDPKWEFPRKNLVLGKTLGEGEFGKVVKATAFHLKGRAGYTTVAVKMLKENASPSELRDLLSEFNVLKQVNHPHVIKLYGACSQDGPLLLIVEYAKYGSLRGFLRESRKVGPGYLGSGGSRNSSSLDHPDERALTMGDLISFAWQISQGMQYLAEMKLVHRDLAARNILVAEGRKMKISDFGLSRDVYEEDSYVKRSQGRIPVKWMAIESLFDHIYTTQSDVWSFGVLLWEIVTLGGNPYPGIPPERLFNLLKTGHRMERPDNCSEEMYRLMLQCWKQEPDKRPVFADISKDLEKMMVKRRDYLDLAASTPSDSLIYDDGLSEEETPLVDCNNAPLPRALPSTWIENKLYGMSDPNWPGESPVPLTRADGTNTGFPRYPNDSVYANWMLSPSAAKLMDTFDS

IC50 [1] [µM]	IC50 [2, 3] [µM]	IC50 [2, 4] [µM]	Compound	IC50 [2] [µM]	IC50 ([2]; read-out: KIF5B-RET pTYR1062 Cell IC50) [µM]
0.153	0.289		CC(C)(C)OC(=O)N1CCN(c2ccc(-c3cc(-c4cnn(C(F)F)c4)cn4ncc(C#N)c34)cn2)CC1 [Example 265, tert-Butyl 4-(5-(3-cyano-6-(1-(difluoromethyl)-1H-pyrazol-4-yl)pyrazolo[1,5-a]pyridin-4-yl)pyridin-2-yl)piperazine-1-carboxylate]		
0.104	0.462		CC(C)C(=O)N[C@H]1CCCN(c2ccc(-c3cc(-c4cnn(C)c4)cn4ncc(C#N)c34)cn2)C1 [Example 225, (S)—N-(1-(5-(3-cyano-6-(1-methyl-1H-pyrazol-4-yl)pyrazolo[1,5-a]pyridin-4-yl)pyridin-2-yl)piperidin-3-yl)isobutyramide]		
0.0262		0.0093	COc1ccc(CN2CCN(c3ccc(-c4cc(-c5cnn(CC(C)OC)c5)cn5ncc(C#N)c45)cn3)CC2)cn1 (stereo not shown) [Example 709, 6-(1-(2-methoxypropyl)-1H-pyrazol-4-yl)-4-(6-(4-((6-methoxypyridin-3-yl)methyl)piperazin-1-yl)pyridin-3-yl)pyrazolo[1,5-a]pyridine-3-carbonitrile]		
0.0425		0.0747	Cn1cc(-c2cc(-c3ccc(N4CCN(Cc5ccc(OCC(F)(F)F)nc5)CC4)nc3)c3c(C#N)cnn3c2)cn1 [Example 674, 6-(1-methyl-1H-pyrazol-4-yl)-4-(6-(4-((6-(2,2,2-trifluoroethoxy)pyridin-3-yl)methyl)piperazin-1-yl)pyridin-3-yl)pyrazolo[1,5-a]pyridine-3-carbonitrile]		
0.0183		0.0064	COc1ccc(CN2CCN(c3ccc(-c4cc(-c5cnn(CCC(=O)N(C)C)c5)cn5ncc(C#N)c45)cn3)CC2)cn1 [Example 706, 3-(4-(3-cyano-4-(6-(4-((6-methoxypyridin-3-yl)methyl)piperazin-1-yl)pyridin-3-yl)pyrazolo[1,5-a]pyridin-6-yl)-1H-pyrazol-1-yl)-N,N-dimethylpropanamide]		
0.009		0.146	Cn1cc(-c2cc(-c3ccc(N4CCC(C(=O)NOCCO)CC4)nc3)c3c(C#N)cnn3c2)cn1 [Example 566, 1-(5-(3-cyano-6-(1-methyl-1H-pyrazol-4-yl)pyrazolo[1,5-a]pyridin-4-yl)pyridin-2-yl)-N-(2-hydroxyethoxy)piperidine-4-carboxamide]		
0.02		0.0126	COc1ccc(CN2CCN(c3ccc(-c4cc(-c5cnn(CC(=O)N(C)C)c5)cn5ncc(C#N)c45)cn3)CC2)cn1 [Example 710, 2-(4-(3-cyano-4-(6-(4-((6-methoxypyridin-3-yl)methyl)piperazin-l-yl)pyridin-3-yl)pyrazolo[1,5-a]pyridin-6-yl)-1H-pyrazol-1-yl)-N,N-dimethylacetamide]		
0.0308		0.0325	COCCCN1CCN(c2ccc(-c3cc(-c4cnn(C)c4)cn4ncc(C#N)c34)cn2)CC1 [Example 405, 4-(6-(4-(3-methoxypropyl)piperazin-1-yl)pyridin-3-yl)-6-(1-methyl-1H-pyrazol-4-yl)pyrazolo[1,5-a]pyridine-3-carbonitrile]		
0.0869		0.0694	Cc1cnn2cc(-c3cnn(C)c3)cc(-c3ccc(N4CCN(Cc5ccccc5)CC4)nc3)c12 [Example 653, 4-(6-(4-benzylpiperazin-1-yl)pyridin-3-yl)-3-methyl-6-(1-methyl-1H-pyrazol-4-yl)pyrazolo[1,5-a]pyridine]		
0.0194		0.0243	COc1cccc(CN2CCN(c3ccc(-c4cc(-c5cn[nH]c5)cn5ncc(C#N)c45)cn3)CC2)n1 [Example 699, 4-(6-(4-((6-methoxypyridin-2-yl)methyl)piperazin-1-yl)pyridin-3-yl)-6-(1H-pyrazol-4-yl)pyrazolo[1,5-a]pyridine-3-carbonitrile]		
0.0344		0.063	Cn1cc(-c2cc(-c3ccc(N4CCN(Cc5ccccc5)CC4)nc3)c3c(Cl)cnn3c2)cn1 [Example 647, 4-(6-(4-benzylpiperazin-1-yl)pyridine-3-yl)-3-chloro-6-(1-methyl-1H-pyrazol-4-yl)pyrazolo[1,5-a]pyridine]		
0.0201		0.0065	COc1ccc(CN2CCN(c3ccc(-c4cc(-c5cnn(CC(C)CO)c5)cn5ncc(C#N)c45)cn3)CC2)cn1 (stereo in doubt) [Example 707, (R)-6-(1-(3-hydroxy-2-methylpropyl)-1H-pyrazol-4-yl)-4-(6-(4-((6-methoxypyridin-3-yl)methyl)piperazin-1-yl)pyridin-3-yl)pyrazolo[1,5-a]pyridine-3-carbonitrile]		
0.0164		0.0098	COc1ccc(CN2CCN(c3ccc(-c4cc(-c5cnn(CCS(=O)(=O)C(C)C)c5)cn5ncc(C#N)c45)cn3)CC2)cn1 [Example 703, 6-(1-(2-(isopropylsulfonyl)ethyl)-1H-pyrazol-4-yl)-4-(6-(4-((6-methoxypyridin-3-yl)methyl)piperazin-1-yl)pyridin-3-yl)pyrazolo[1,5-a]pyridine-3-carbonitrile]		
0.14		0.215	CCc1cnn2cc(-c3cnn(C)c3)cc(-c3ccc(N4CCNCC4)nc3)c12 [Example 657, 3-ethyl-6-(1-methyl-1H-pyrazol-4-yl)-4-(6-(piperazin-1-yl)pyridin-3-yl)pyrazolo[1,5-a]pyridine]		

Compound	IC50 [1] [µM]	IC50 [2, 3] [µM]	IC50 [2, 4] [µM]	IC50 [2] [µM]	IC50 ([2]; read-out: KIF5B-RET pTYR1062 Cell IC50) [µM]
COc1ccc(CN2CCN(c3ccc(-c4cc(-c5cnn(C)c5)cn5ncc(C)c45)cn3)CC2)cn1 [Example 744, 4-(6-(4-((6-methoxypyridin-3-yl)methyl)piperazin-1-yl)pyridin-3-yl)-3-methyl-6-(1-methyl-1H-pyrazol-4-yl)pyrazolo[1,5-a]pyridine]	0.0462			0.0663	
COc1ccc(CN2CCN(c3ccc(-c4cc(-c5cnn(C)c5)cn5ncc(C#N)c45)cn3)CC2)c(C)n1 [Example 678, 4-(6-(4-((6-methoxy-2-methylpyridin-3-yl)methyl)piperazin-l-yl)pyridin-3-yl)-6-(1-methyl-1H-pyrazol-4-yl)pyrazolo[1,5-a]pyridine-3-carbonitrile]	0.015			0.0163	
Cc1nn(C(C)(C)C)cc1-c1cc(-c2ccc(N3CCN(Cc4ccccc4)CC3)nc2)c2c(C#N)cnn2c1 [Example 616, 4-(6-(4-benzylpiperazin-1-yl)pyridin-3-yl)-6-(1-(tert-butyl)-3-methyl-1H-pyrazol-4-yl)pyrazolo[1,5-a]pyridine-3-carb onitrile]	0.0608			0.0852	
CCc1nn(CC)cc1-c1cc(-c2ccc(N3CCN(Cc4ccccc4)CC3)nc2)c2c(C#N)cnn2c1 [Example 615, 4-(6-(4-benzylpiperazin-1-yl)pyridin-3-yl)-6-(1,3-diethyl-1H-pyrazol-4-yl)pyrazolo[1,5-a]pyridine-3-carbonitrile]	0.06			0.117	
COc1ccc(CN2CCN(c3ccc(-c4cc(-c5cnn(C(C)C)c5)cn5ncc(C#N)c45)cn3)CC2)cn1 [Example 697, 6-(1-isopropyl-1H-pyrazol-4-yl)-4-(6-(4-((6-methoxypyridin-3-yl)methyl)piperazin-1-yl)pyridin-3-yl)pyrazolo[1,5-a]pyridine-3-carbonitrile]	0.0281			0.0138	
N#Cc1cnn2cc(-c3cnn(C(F)F)c3)cc(-c3ccc(N4CCNCC4)nc3)c12 [Example 266, 6-(1-(difluoromethyl)-1H-pyrazol-4-yl)-4-(6-(piperazin-1-yl)pyridin-3-yl)pyrazolo[1,5-a]pyridine-3-carbonitrile dihydrochloride]	0.0477				0.162

From patent publication US10023570B2 (Array BioPharma, Inc., priority 2015, dated 2018)
